Test results published in a melting point compilation (Tetko et al.).

Row | Compound | melting point [°C]
1 | N#C/C(=N\Nc1ccc2ccccc2c1)c1nc(-c2ccc(Cl)cc2)cs1 | 218
2 | CC(O)C(NC(=O)OC(C)(C)C)C(=O)O (stereo unspecified) | 79
3 | CC(C=CC=C(C)C=CC1=C(C)C(=O)C(O)CC1(C)C)=CC=CC=C(C)C=CC=C(C)C=CC1=C(C)C(=O)C(O)CC1(C)C (stereo unspecified) | 182
4 | CC(=O)Nc1cc(CCNC(=O)c2ccccc2)cc(NC(C)=O)c1CCNC(=O)c1ccccc1 | 268
5 | CC(C)(O)C#CC#CC(C)(C)O | 132 to 134
6 | COc1ccc(-c2cc3c(C#N)c(N)[nH]n3c(=O)c2C#N)cc1 | 297
7 | O=[N+]([O-])c1nc[nH]n1 | 212 to 214
8 | Cc1n[nH]c(SCC#N)n1 | 158 to 160
9 | CCOC(=O)c1[nH]c(C)c(C(C)=O)c1C | 146 to 147
10 | O=C(Nc1ccccc1)C1Cc2ccccc21 (stereo unspecified) | 161
11 | O=Cc1ccccc1Sc1ccc(Cl)cc1 | 73
12 | Cc1cccc2ccccc12 | 34
13 | CN(C)Cc1ncccc1O | 55 to 60
14 | NC(=O)c1ccc(C(F)(F)F)nc1O | 220 to 223
15 | N#CCc1cccc([N+](=O)[O-])c1 | 63
16 | C#Cc1ccc(Br)cc1 | 66
17 | COc1ccc(/C=N/c2ccc(-c3ccc(/N=N/c4ccccc4)cc3)cc2)cc1 | 214 to 215
18 | CC1=Nc2ccccc2N=C(C)C1 | 193
19 | NNC(=O)CSc1ccnc2cc(Cl)ccc12 | 213 to 216
20 | O=[N+]([O-])c1cc2nccnc2cc1[N+](=O)[O-] | 188 to 191
21 | O=C(CBr)c1ccc(C(F)(F)F)cc1 | 45 to 46
22 | Fc1cccc(-c2cccc(F)c2)c1 | 8
23 | CC(=O)NS(=O)(=O)c1ccc(NC(=O)c2ccccc2C(=O)O)cc1 | 196
24 | O=[N+]([O-])C=Cc1ccc2c(c1)OCO2 | 159 to 163
25 | Cc1ccnc(Cl)c1N | 66

Row | Compound | melting point [°C]
26 | CC(=O)Oc1ccc(OC(C)=O)c(-c2ccccc2)c1 | 68
27 | CCc1ccc2cc3ccccc3cc2c1 | 152
28 | C=CCOc1c(Cc2cc(C(C)=O)c(O)c(C)c2OCC=C)cc(C(C)=O)c(O)c1C | 143
29 | CC1OC(OC2CCC3(C=O)C4CCC5(C)C(C6=CC(=O)OC6)CCC5(O)C4CCC3(O)C2)C(O)C(O)C1O (stereo unspecified) | 238
30 | O=C(O)c1cc(-c2ccccc2)n[nH]1 | 250
31 | CC(C)(C)C1=CC(=O)C(C(C)(C)C)=CC1=O | 153
32 | Cn1ccc2ccc(C(=O)O)cc21 | 197
33 | Cc1cc(O)nc(N)n1 | 300
34 | Cc1cc(O)cc2c1C(=O)CC(C)(C)O2 | 189 to 191
35 | O=C(O)COC(=O)Cc1ccccc1Nc1c(Cl)cccc1Cl | 149
36 | CC(C)C(C)(C)Cl | -10
37 | FC(F)(Cl)C(F)(Cl)Cl | -35
38 | O=C(CN1CCN(Cc2ccc3c(c2)OCO3)CC1)N1c2ccccc2Sc2ccccc21 | 142
39 | FC(F)(F)c1ccc(-c2nc(CCl)cs2)cc1 | 80 to 85
40 | O=Cc1ccc(-c2ccccc2)nc1 | 57 to 59
41 | C=C(C)CCCCCCCCCCCCCCCCC | 20
42 | CCOC(=O)C(C)(C)C1(O)CCC2(C)C(CCC3C2CCC2(C)C(OCc4ccccc4)CCC32)C1 (stereo unspecified) | 147
43 | Cc1cc(C(=O)Cl)nn1C | 73 to 74
44 | NC1C2CN(c3nc4c(cc3F)c(=O)c(C(=O)O)cn4-c3ccc(F)cc3F)CC12 (stereo unspecified) | 246
45 | Cc1ccccc1NN=C1C(=O)NC(=O)NC1=O | 265
46 | CCOC(=O)c1sc(Cl)nc1C | 46 to 47
47 | CC1(C)OC(=O)C(=Cc2cccs2)C(=O)O1 | 182
48 | COc1ccccc1C1Nn2c(nnc2-c2ccccc2)S1 (stereo unspecified) | 196
49 | Cc1ccc(N2CCNCC2)cc1 | 29 to 34
50 | O=C(C1=NN(c2ccccc2)C2C(=O)N(c3ccc([N+](=O)[O-])cc3)C(=O)C12)c1ccc(Br)cc1 (stereo unspecified) | 151

Row | Compound | melting point [°C]
51 | CCCCSC(=Nc1cccnc1)SCc1ccc(C(C)(C)C)cc1 | 32
52 | O=C(Cc1cc(CC(=O)c2ccccc2)c([N+](=O)[O-])cc1[N+](=O)[O-])c1ccccc1 | 170 to 171
53 | CN1CCC23CCCCC2C1Cc1ccc(O)cc13 (stereo unspecified) | 198
54 | O=C1c2ccccc2C(=O)C2CC3=C(CC=CC3)CC12 (stereo unspecified) | 155
55 | CC(C)=C1OC(=O)N(c2cc(OC3CCCC3)c(Cl)cc2F)C1=O | 104
56 | COc1cc(/C=N/c2ccccc2)ccc1O | 140
57 | O=Cc1ccc(-c2ccc(OC(F)(F)F)cc2)o1 | 87 to 88
58 | O=C1c2ccccc2C(=O)C1c1ccc(F)cc1 | 120
59 | CSc1nc(N=Cc2ccc([N+](=O)[O-])cc2)nn1C | 194 to 196
60 | O=C(O)CCCCCCCC(O)C(O)CCCCCCO (stereo unspecified) | 100
61 | O=Cc1ccc(Cl)c([N+](=O)[O-])c1 | 63
62 | NNC(=O)c1sc2ccccc2c1Cl | 181 to 183
63 | Nc1ccc(C(=O)O)cc1F | 215
64 | COc1c(C(C)(C)C(C)C)c(OC(C)=O)c(OC(C)=O)c2ccccc12 | 145
65 | Brc1c2ccccc2cc2ccccc12 | 100
66 | Cc1c(C(=O)O)cc(-c2ccccc2)n1-c1ccccc1 | 226 to 227
67 | CCOC(=O)Cc1ccc(O)cc1 | 39 to 40
68 | CCCCCCCC(=O)NN | 88
69 | N#Cc1c(-c2ccc(Br)cc2)cc2c(C#N)c(=N)n(C(=O)c3ccccc3)n2c1N | 190
70 | Nc1ccc(N=Nc2ccc(S(N)(=O)=O)cc2)c(N)c1 | 250
71 | Oc1cc(-c2ccccc2)c2cc(Br)cc(Br)c2n1 | 210 to 211
72 | CCCCOc1ccc(-c2nnc3sc(/C=C/c4ccccc4)nn23)cc1 | 79 to 81
73 | O=[N+]([O-])c1ccc(-c2nnc(NC3=NCCN3)s2)cc1 | 239 to 241
74 | O=C(O)C=CC=Cc1ccc2c(c1)OCO2 | 215
75 | CSc1cc2c(c3c1CCc1ccccc1-3)c(=O)n(-c1ccccc1)n2C | 181

Row | Compound | melting point [°C]
76 | CCOc1ccccc1F | -16.7
77 | COc1ccc(OC)c(/C=N/n2c(S)nnc2C(F)(F)F)c1 | 145
78 | Cc1ccc(C(c2ccc(C)o2)c2cc(Br)cc(C)c2O)o1 | 198 to 199
79 | CNc1ccc2cc3ccc(N(C)S(C)(=O)=O)cc3nc2c1CO | 150
80 | O=C(Cl)c1cccc(S(=O)(=O)Cl)c1 | 18 to 20
81 | N#Cc1cc(F)cc(Cl)c1 | 57
82 | Cc1ccc(S(=O)(=O)OCC(C)OS(=O)(=O)c2ccc(C)cc2)cc1 (stereo unspecified) | 68 to 70
83 | O=C1OC(c2cc(Br)c(O)c(Br)c2)(c2cc(Br)c(O)c(Br)c2)c2ccccc21 | 296
84 | O=C(OCc1ccccc1)OCc1ccccc1 | 29 to 33
85 | Cc1ccc(/C=C(\C#N)c2nc(-c3ccccc3)cs2)cc1 | 78 to 80
86 | CC(C)(C)CCO | -60
87 | CC1CCC(C)CC1 (stereo unspecified) | -36.9
88 | CCCCCCCCCCCCOC1OC(CO)C(OC2OC(CO)C(O)C(O)C2O)C(O)C1O (stereo unspecified) | 217
89 | N#Cc1ccc(F)cc1F | 46
90 | CC1=NN(c2ccccc2)C(=O)/C1=C\c1cccc(/C=C2\C(=O)N(c3ccccc3)N=C2C)c1 | 220
91 | CCCCOc1ccc(-c2nnc3sc(-c4ccc(Cl)c([N+](=O)[O-])c4)nn23)cc1 | 70
92 | O=C(O)C(F)(F)C(F)(F)C(F)(F)C(F)(F)C(F)(F)C(F)(F)C(F)(F)C(F)(F)C(F)(F)C(F)(F)C(F)(F)C(F)(F)C(F)(F)F | 130
93 | O=C(O)C(=Cc1ccc(Cl)cc1)C(=Cc1ccc(Cl)cc1)C(=O)O | 232
94 | N#Cc1cc([N+](=O)[O-])ccc1-n1cccc1 | 96 to 98
95 | CC12CCC3C(=CCc4cc(O)ccc43)C1CCC2=O (stereo unspecified) | 239
96 | CC(C)N(C(=O)C(C(F)(F)F)C(F)(F)F)C(C)C | 53
97 | Nc1nc(O)nc2[nH]cnc12 | 300
98 | Cc1ccc(S(=O)(=O)OC2CCC3(C)C(CCC4C5CC(=O)CC5(C)CCC43)C2)cc1 (stereo unspecified) | 165 to 166
99 | COC(=O)c1c(C)[nH]c(C)c1C=O | 160
100 | ClC1=C(Cl)C(Cl)(C2(Cl)C(Cl)=C(Cl)C(Cl)=C2Cl)C(Cl)=C1Cl | 122

Row | Compound | melting point [°C]
101 | Cc1nc(-c2cccc(CO)c2)no1 | 56 to 58
102 | c1ccc2cc(Nc3ccc4ccccc4c3)ccc2c1 | 172
103 | COP(=S)(OC)SCN1C(=O)c2ccccc2C1=O | 72
104 | Fc1ccccc1C1=NCC(=S)N(CC(F)(F)F)c2ccc(Cl)cc21 | 138
105 | Cc1nc[nH]c1C=O | 165 to 166
106 | NC(=O)C12CCN(CC1)CC2 | 235 to 237
107 | CC(C)(C)c1ccc(N=C=S)cc1 | 42
108 | C[C@@]12CCC=C1[C@@H]1CC[C@H]3CC(=O)CC[C@]3(C)[C@H]1CC2 | 115 to 117
109 | O=C(O)c1cccnc1N1CCOCC1 | 129 to 133
110 | COc1cc(Oc2ccc(Cl)cc2Cl)ccc1[N+](=O)[O-] | 114
111 | Cc1ccc(C)c(N2CCNCC2)c1 | 45
112 | COc1cc(O)ccc1C=O | 158
113 | CC1(C)OCC2OC3OC(C)(C)OC3C2O1 (stereo unspecified) | 42 to 46
114 | OCc1cc(-c2cccs2)[nH]n1 | 126 to 128
115 | COc1ccc(Cl)c(Cl)c1 | -8
116 | CCC(=O)c1ccc2ccccc2c1 | 60
117 | O=C(Nc1ccccc1)c1cccnc1 | 120
118 | C[Si](C)(C)C#Cc1ccc(C#C[Si](C)(C)C)cc1 | 120
119 | NN1C(=O)c2ccccc2C1=O | 200 to 202
120 | Cn1nc(CO)cc1-c1ccco1 | 43 to 48
121 | Nc1cccc(N)c1N | 103
